In assay [1] the test system is Rhizoctonia solani. Briefly: Antifungal activity against mepronil-resistant Rhizoctonia solani JSR3 after 2 days. The conditions noted are these: JSR3, 48 h. It counts as functional, organism-based.
Assay [2] concerns Rhizoctonia solani. Briefly: Antifungal activity against mepronil-resistant Rhizoctonia solani JSR2 after 2 days. As to conditions: JSR2, 48 h. It counts as functional, organism-based.
For assay [3], the system named is Rhizoctonia solani. As to the kind of experiment: Antifungal activity against mepronil-resistant Rhizoctonia solani JSR1 after 2 days. As to conditions: JSR1, 48 h. It counts as functional, organism-based.
The test system of assay [4] is Rhizoctonia solani. Briefly: Antifungal activity against mepronil-sensitive wild type Rhizoctonia solani JS7 after 2 days. It counts as functional, organism-based. As to conditions: JS7, 48 h.
The test system of assay [5] is Rhizoctonia solani. As to the kind of experiment: Antifungal activity against mepronil-resistant Rhizoctonia solani ZJR2 after 2 days. As to conditions: ZJR2, 48 h. Type of assay: functional, organism-based.
Assay [6] has as its system Rhizoctonia solani. Briefly: Antifungal activity against mepronil-resistant Rhizoctonia solani ZJR3 after 2 days. It counts as functional, organism-based. As to conditions: ZJR3, 48 h.
The subject of assay [7] is Rhizoctonia solani. Briefly: Antifungal activity against mepronil-resistant Rhizoctonia solani ZJR1 after 2 days. It counts as functional, organism-based. As to conditions: ZJR1, 48 h.
In assay [8] the test system is Rhizoctonia solani. Briefly: Antifungal activity against mepronil-sensitive wild type Rhizoctonia solani ZJ-1 after 2 days. It counts as functional, organism-based. The conditions noted are these: ZJ-1, 48 h.
Assay [9] relates to Rhizoctonia solani. Briefly: Resistant factor, ratio of EC50 for mepronil-resistant Rhizoctonia solani ZJR1 to EC50 for mepronil-sensitive wild type Rhizoctonia solani ZJ-1. Type of assay: functional.
Assay [10] relates to Rhizoctonia solani. As to the kind of experiment: Resistant factor, ratio of EC50 for mepronil-resistant Rhizoctonia solani JSR3 to EC50 for mepronil-sensitive wild type Rhizoctonia solani JS7. Type of assay: functional.
Assay [11] deals with Rhizoctonia solani. As to the kind of experiment: Resistant factor, ratio of EC50 for mepronil-resistant Rhizoctonia solani JSR2 to EC50 for mepronil-sensitive wild type Rhizoctonia solani JS7. Type of assay: functional.
In assay [12] the test system is Rhizoctonia solani. Briefly: Resistant factor, ratio of EC50 for mepronil-resistant Rhizoctonia solani JSR1 to EC50 for mepronil-sensitive wild type Rhizoctonia solani JS7. It counts as functional.
Assay [13] relates to Rhizoctonia solani. As to the kind of experiment: Resistant factor, ratio of EC50 for mepronil-resistant Rhizoctonia solani ZJR3 to EC50 for mepronil-sensitive wild type Rhizoctonia solani ZJ-1. Type of assay: functional.
Assay [14] has as its system Rhizoctonia solani. Briefly: Resistant factor, ratio of EC50 for mepronil-resistant Rhizoctonia solani ZJR2 to EC50 for mepronil-sensitive wild type Rhizoctonia solani ZJ-1. It counts as functional.

SMILES strings stand for the structures. ≈ marks a conversion by molar mass, not a printed value.

In general, EC50 refers to the concentration that produces a half-maximal response. A lower EC50 goes with greater potency. On to `CO/C=C(/C(=O)OC)c1ccccc1Oc1cc(Oc2ccccc2C#N)ncn1` [AZOXYSTROBIN], for which the EC50 stood at 0.19 µg/mL (≈ 0.471 µM) in [1]; 0.18 µg/mL (≈ 0.446 µM) in assay [2]; 0.17 µg/mL (≈ 0.421 µM) in [3]; 0.19 µg/mL (≈ 0.471 µM) in assay [4]; 0.34 µg/mL (≈ 0.843 µM) in [5]; 0.32 µg/mL (≈ 0.793 µM) in assay [6]. Further, the EC50 in assay [7] and in [8] was 0.32 µg/mL (≈ 0.793 µM) in each case.
Take `O=C(Nc1ccccc1-c1ccc(Cl)cc1)c1cccnc1Cl` [BOSCALID]: the EC50 in [1] was 2.08 µg/mL (≈ 6.06 µM); in [2], 2.13 µg/mL (≈ 6.21 µM); in assay [3], 2.26 µg/mL (≈ 6.58 µM); in [4] it was 2.15 µg/mL (≈ 6.26 µM); in assay [5] it was 2.15 µg/mL (≈ 6.26 µM); in assay [6] it was 1.93 µg/mL (≈ 5.62 µM). Further, the results for the EC50 in assay [7] and in assay [8] were 1.87 µg/mL (≈ 5.45 µM) and 1.98 µg/mL (≈ 5.77 µM), respectively.
Take `CO/N=C(/C(=O)OC)c1ccccc1COc1ccccc1C` [KRESOXIM-METHYL]: the EC50 in assay [1] was 0.16 µg/mL (≈ 0.511 µM); in assay [2] it was 0.14 µg/mL (≈ 0.447 µM); in assay [3], 0.2 µg/mL (≈ 0.638 µM); in assay [4], 0.16 µg/mL (≈ 0.511 µM); in assay [5], 0.29 µg/mL (≈ 0.925 µM); in [6] it was 0.37 µg/mL (≈ 1.18 µM). Besides, the EC50 in [7] was determined as 0.33 µg/mL (≈ 1.05 µM); in assay [8], 0.34 µg/mL (≈ 1.09 µM).
For `Cc1ccccc1C(=O)Nc1cccc(OC(C)C)c1` [MEPRONIL], the “Ratio EC50” value in assay [9] amounted to 116.7; in assay [10] it was 209.8; in assay [11], 144.5; in [12], 87.3; in [13], 179.5; in assay [14], 109.2. Further, the EC50 in assay [1] was found to be 20.6 µg/mL (≈ 76.3 µM); in [2], 14.2 µg/mL (≈ 52.6 µM); in assay [3] it was 8.56 µg/mL (≈ 31.8 µM); in assay [4], 0.098 µg/mL (≈ 0.364 µM); in [5], 12.7 µg/mL (≈ 47 µM); in assay [6], 20.8 µg/mL (≈ 77.3 µM). In addition, a half-maximal effect in assay [7] (EC50) was put at 13.5 µg/mL (≈ 50.3 µM).
`OCC1=C[C@H](N[C@H]2C[C@H](CO)[C@@H](O[C@@H]3O[C@H](CO)[C@@H](O)[C@H](O)[C@H]3O)[C@H](O)[C@H]2O)[C@H](O)[C@@H](O)[C@@H]1O` [VALIDAMYCIN]: the EC50 in assay [1] worked out at 0.14 µg/mL (≈ 0.281 µM); in assay [2], 0.18 µg/mL (≈ 0.362 µM); in [3], 0.16 µg/mL (≈ 0.322 µM); in assay [4] it was 0.18 µg/mL (≈ 0.362 µM); in [5], 0.09 µg/mL (≈ 0.181 µM); in [6], 0.1 µg/mL (≈ 0.201 µM). Further, the EC50 was 0.08 µg/mL (≈ 0.161 µM) in [7] and 0.09 µg/mL (≈ 0.181 µM) in assay [8].
